ChEMBL document CHEMBL2163217, “A straightforward approach for engineering efficacy and selectivity at GPCRs” (J Med Chem, 2012)
The source made the active and inactive calls. No cut-off for these calls is given here.

Tests used:
Type in all cases: functional
[1] = target: D(2) dopamine receptor (Homo sapiens) (UniProt P14416); experiment: Partial agonist activity at D2 receptor relative to control
[2] = target: D(3) dopamine receptor (Homo sapiens) (UniProt P35462); experiment: Partial agonist activity at D3 receptor
[3] = target: D(2) dopamine receptor (Homo sapiens) (UniProt P14416); experiment: Partial agonist activity at D2 receptor
[4] = target: D(3) dopamine receptor (Homo sapiens) (UniProt P35462); experiment: Partial agonist activity at D3 receptor relative to control

D(3) dopamine receptor (Homo sapiens), sequence (P35462 whole entry): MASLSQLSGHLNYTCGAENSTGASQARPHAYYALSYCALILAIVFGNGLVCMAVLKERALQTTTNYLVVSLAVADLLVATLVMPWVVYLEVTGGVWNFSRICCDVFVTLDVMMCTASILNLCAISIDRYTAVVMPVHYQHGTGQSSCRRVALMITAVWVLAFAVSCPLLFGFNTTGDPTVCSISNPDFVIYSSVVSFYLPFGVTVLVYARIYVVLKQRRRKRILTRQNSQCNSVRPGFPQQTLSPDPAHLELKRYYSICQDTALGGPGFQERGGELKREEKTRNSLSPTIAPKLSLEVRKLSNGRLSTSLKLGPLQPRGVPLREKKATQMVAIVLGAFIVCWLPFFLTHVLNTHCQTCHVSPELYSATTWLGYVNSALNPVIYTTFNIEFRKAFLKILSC
D(2) dopamine receptor (Homo sapiens), sequence (P14416 whole entry): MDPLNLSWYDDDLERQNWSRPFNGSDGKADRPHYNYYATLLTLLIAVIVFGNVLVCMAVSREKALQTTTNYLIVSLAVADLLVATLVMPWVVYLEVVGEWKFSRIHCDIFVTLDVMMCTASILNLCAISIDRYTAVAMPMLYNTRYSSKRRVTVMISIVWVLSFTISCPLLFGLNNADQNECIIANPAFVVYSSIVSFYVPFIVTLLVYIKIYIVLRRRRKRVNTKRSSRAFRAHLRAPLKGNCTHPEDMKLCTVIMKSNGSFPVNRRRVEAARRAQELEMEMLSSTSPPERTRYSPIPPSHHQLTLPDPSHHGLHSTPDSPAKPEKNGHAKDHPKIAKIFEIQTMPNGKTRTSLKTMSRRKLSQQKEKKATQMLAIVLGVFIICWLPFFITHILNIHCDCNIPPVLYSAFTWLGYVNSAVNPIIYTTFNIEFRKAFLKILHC

Row | Compound | Emax [1] | Activity [2] | Activity [3] | Emax [4]
1 | COc1ccccc1N1CCN(CCCCNC(=O)c2cc3ccccc3[nH]2)CC1 | 8% | Active | Active | 8%
2 | O=C(NCCCCN1CCN(c2cccc(Cl)c2Cl)CC1)c1cc2ccccc2[nH]1 | – | Active | – | –
3 | COc1ccccc1N1CCNCC1 | 14% | – | – | –
4 | Clc1cccc(N2CCNCC2)c1Cl | 40.4% | – | – | 57.3%
